# Measurements reported in patent publication US20260007133A1, “HERBICIDAL COMPOSITION COMPRISING AZINE COMPOUNDS” (BASF SE, priority 2022, published 2026).
# Where two headings read alike, the source gives them in different places.
# Legend:
# Format in all cases: in vivo
# Ambrosia artemisiifolia = experiment: Greenhouse pre-emergence (PRE) herbicidal test on AMBEL; settings: Ambrosia artemisiifolia, pre-emergence; for inhibition at 4 g/ha: use rate 4 gai/ha; for inhibition at 8 g/ha: use rate 8 gai/ha
# Galium aparine = experiment: Greenhouse pre-emergence (PRE) herbicidal test on GALAP; settings: Galium aparine, pre-emergence; PRE; GALAP; use rate 8 gai/ha
# Method in brief: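 First, each species was sown separately in loamy sand containing about 3.0% humus. Then the aqueous active compound was applied by finely distributing nozzles straight after sowing, pots were gently irrigated and covered with transparent hoods, and injury was assessed on a 0–100 scale at 20 DAT.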
# Polygonum convolvulus = experiment: Greenhouse pre-emergence (PRE) herbicidal test on POLCO; settings: Fallopia convolvulus, pre-emergence, use rate 8 gai/ha
# Source text: The culture containers used were plastic pots containing loamy sand with approximately 3.0% of humus as substrate. The seeds of the test plants were sown separately for each species.
# For the pre-emergence treatment, the active compounds, suspended or emulsified in water, were applied directly after sowing by means of finely distributing nozzles. The containers were irrigated gently to promote germination and growth and subsequently covered with transparent plastic hoods until the plants had rooted. This cover caused uniform germination of the test plants unless this was adversely affected by the active compounds.
# Depending on the species, the plants were kept at 10-25° C. and 20-35° C., respectively.
# The test period extended over 2 to 4 weeks. During this time, the plants were tended and their response to the individual treatments was evaluated.
# Evaluation was carried out using a scale from 0 to 100. 100 means no emergence of the plants, or complete destruction of at least the above-ground parts, and 0 means no damage or normal course of growth. A good herbicidal activity is given at values of at least 70, and very good herbicidal activity is given at values of at least 85.
# If not stated differently, the respective components A and B, and if appropriate, C were formulated as a 5% by weight strength emulsion concentrate and, with addition of the amount of solvent system, introduced into the spray liquor used for applying the active compound.
# As indicated application was either post emergent (POST) at the respective growth stage (GS) of the weed (BBCH code), or pre-emergent (PRE).
# Assessment was 20 days after treatment (DAT).
# Abutilon theophrasti = experiment: Greenhouse post-emergence (POST) herbicidal test on ABUTH; settings: Abutilon theophrasti, post-emergence
# Method in brief: (§1)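 Weeds grown in loamy sand (~3.0% humus) to 3–15 cm were sprayed post-emergence with compounds suspended or emulsified in water, formulated as 5% emulsion concentrates. Plants were kept at 10-25 °C or 20-35 °C by species. Damage was scored 0–100 (100 = complete destruction) at 20 DAT.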
# Commelina benghalensis = experiment: Greenhouse post-emergence (POST) herbicidal test on COMBE; settings: 480 h, use rate 4 gai/ha, 20 DAT
# Method in brief: as §1
# Digitaria sanguinalis = experiment: Greenhouse post-emergence (POST) herbicidal test on DIGSA; settings: Digitaria sanguinalis, post-emergence, POST
# Method in brief: as §1
# Euphorbia heterophylla = experiment: Greenhouse post-emergence (POST) herbicidal test on EPHHL; settings: Euphorbia heterophylla, post-emergence
# Method in brief: as §1
# Geranium pusillum = experiment: Greenhouse post-emergence (POST) herbicidal test on GERPU; settings: Geranium pusillum, post-emergence; for inhibition at 2 g/ha: use rate 2 gai/ha, read-out: % activity
# Method in brief: as §1
# Ipomoea hederacea = experiment: Greenhouse post-emergence (POST) herbicidal test on IPOHE; settings: Ipomoea hederacea, post-emergence
# Method in brief: as §1
# Setaria viridis = experiment: Greenhouse post-emergence (POST) herbicidal test on SETVI; settings: 480 h, 20 DAT
# Method in brief: as §1
# AMAPA [1] = experiment: Greenhouse pre-emergence (PRE) herbicidal test on AMAPA; settings: pre-emergence; for inhibition at 8 g/ha: use rate 8 gai/ha
# AMAPA [2] = experiment: Greenhouse post-emergence (POST) herbicidal test on AMAPA; settings: post-emergence, 480 h, use rate 2 gai/ha, 20 DAT
structure (smiles),measurement,setting,value
COc1c(Br)cc(F)c(F)c1Nc1nc(N)nc(C(C)(C)F)n1 [Compound I-2],inhibition at 2 g/ha,"Ambrosia artemisiifolia; 240 h, PRE, use rate 2 gai/ha, 10 DAT, read-out: % activity",20%
same,inhibition at 4 g/ha,"Ambrosia artemisiifolia; 240 h, PRE, 10 DAT",20%
same,inhibition at 8 g/ha,"Ambrosia artemisiifolia; 240 h, PRE, 10 DAT, read-out: % activity",35%
same,inhibition at 16 g/ha,"Ambrosia artemisiifolia; 240 h, PRE, use rate 16 gai/ha, 10 DAT",50%
same,pest or weed control at 8 g/ha,"Ambrosia artemisiifolia; 432 h, PRE, AMBEL, I-2 solo 8 gai/ha, 18 DAT",70%
same,inhibition at 2 g/ha,"Ambrosia artemisiifolia; 480 h, AMBEL PRE, 20 DAT, use rate 2 gai/ha, read-out: % activity",35%
same,inhibition at 8 g/ha,"Ambrosia artemisiifolia; 480 h, AMBEL PRE, 20 DAT, read-out: % activity",90%
same,pest or weed control at 8 g/ha,"Ambrosia artemisiifolia; 480 h, PRE, 8 gai/ha, 20 DAT",90%
same,inhibition at 2 g/ha,"Ambrosia artemisiifolia; 480 h, PRE, AMBEL, 2 gai/ha, 20 DAT, read-out: % activity solo application",0%
same,inhibition at 2 g/ha,"Ambrosia artemisiifolia; 480 h, PRE, AMBEL, use rate 2 gai/ha, 20 DAT, read-out: solo application % activity",0%
same,inhibition at 8 g/ha,"Ambrosia artemisiifolia; 480 h, PRE, 20 DAT, read-out: % activity",80%
same,inhibition at 2 g/ha,"Ambrosia artemisiifolia; AMBEL PRE, use rate 2 gai/ha, read-out: % activity",30%
same,inhibition at 4 g/ha,"Ambrosia artemisiifolia; PRE, AMBEL",20%
same,inhibition at 8 g/ha,Galium aparine,15%
same,inhibition at 8 g/ha,Polygonum convolvulus,80%
same,pest or weed control at 2 g/ha,"Abutilon theophrasti; 432 h, POST, ABUTH, I-2 solo 2 gai/ha, 18 DAT",20%
same,pest or weed control at 8 g/ha,"Abutilon theophrasti; 432 h, POST, ABUTH, I-2 solo 8 gai/ha, 18 DAT",20%
same,inhibition at 2 g/ha,"Abutilon theophrasti; 480 h, ABUTH POST, 20 DAT, use rate 2 gai/ha, read-out: % activity",10%
same,pest or weed control at 2 g/ha,"Abutilon theophrasti; 480 h, POST, 2 gai/ha, 20 DAT",10%
same,inhibition at 2 g/ha,"Abutilon theophrasti; 480 h, POST, ABUTH, 2 gai/ha, 20 DAT, read-out: % activity solo application",15%
same,inhibition at 8 g/ha,"Abutilon theophrasti; 480 h, POST, ABUTH, 8 gai/ha, 20 DAT, read-out: % activity solo application",40%
same,inhibition at 8 g/ha,"Abutilon theophrasti; 480 h, POST, ABUTH, use rate 8 gai/ha, 20 DAT, read-out: solo application % activity",40%
same,inhibition at 4 g/ha,Commelina benghalensis,0%
same,pest or weed control at 2 g/ha,"Digitaria sanguinalis; 432 h, DIGSA, I-2 solo 2 gai/ha, 18 DAT",0%
same,pest or weed control at 8 g/ha,"Digitaria sanguinalis; 480 h, 8 gai/ha, 20 DAT",65%
same,inhibition at 2 g/ha,"Digitaria sanguinalis; 480 h, DIGSA, 2 gai/ha, 20 DAT, read-out: % activity solo application",0%
same,inhibition at 8 g/ha,"Digitaria sanguinalis; 480 h, DIGSA, 8 gai/ha, 20 DAT, read-out: % activity solo application",20%
same,inhibition at 2 g/ha,"Digitaria sanguinalis; 480 h, DIGSA, use rate 2 gai/ha, 20 DAT, read-out: solo application % activity",0%
same,inhibition at 8 g/ha,"Digitaria sanguinalis; 480 h, DIGSA, use rate 8 gai/ha, 20 DAT, read-out: solo application % activity",20%
same,pest or weed control at 2 g/ha,"Euphorbia heterophylla; 432 h, POST, EPHHL, I-2 solo 2 gai/ha, 18 DAT",25%
same,inhibition at 2 g/ha,"Euphorbia heterophylla; 480 h, EPHHL POST, 20 DAT, use rate 2 gai/ha, read-out: % activity",10%
same,pest or weed control at 2 g/ha,"Euphorbia heterophylla; 480 h, POST, 2 gai/ha, 20 DAT",10%
same,inhibition at 8 g/ha,"Euphorbia heterophylla; 480 h, POST, EPHHL, 8 gai/ha, 20 DAT, read-out: % activity solo application",30%
same,inhibition at 4 g/ha,"Euphorbia heterophylla; 480 h, POST, EPHHL, use rate 4 gai/ha, 20 DAT",50%
same,inhibition at 8 g/ha,"Euphorbia heterophylla; 480 h, POST, EPHHL, use rate 8 gai/ha, 20 DAT, read-out: % activity",60%
same,pest or weed control at 2 g/ha,"Geranium pusillum; 432 h, POST, GERPU, I-2 solo 2 gai/ha, 18 DAT",40%
same,pest or weed control at 8 g/ha,"Geranium pusillum; 432 h, POST, GERPU, I-2 solo 8 gai/ha, 18 DAT",50%
same,inhibition at 2 g/ha,"Geranium pusillum; 480 h, GERPU POST, 20 DAT",20%
same,pest or weed control at 2 g/ha,"Geranium pusillum; 480 h, POST, 2 gai/ha, 20 DAT",20%
same,pest or weed control at 8 g/ha,"Geranium pusillum; 480 h, POST, 8 gai/ha, 20 DAT",25%
same,inhibition at 2 g/ha,"Geranium pusillum; POST, GERPU",30%
same,inhibition at 2 g/ha,"Ipomoea hederacea; 480 h, IPOHE POST, 20 DAT, use rate 2 gai/ha, read-out: % activity",30%
same,inhibition at 8 g/ha,"Ipomoea hederacea; 480 h, IPOHE POST, 20 DAT, use rate 8 gai/ha, read-out: % activity",80%
same,pest or weed control at 2 g/ha,"Ipomoea hederacea; 480 h, POST, 2 gai/ha, 20 DAT",30%
same,pest or weed control at 8 g/ha,"Ipomoea hederacea; 480 h, POST, 8 gai/ha, 20 DAT",80%
same,inhibition at 2 g/ha,"Ipomoea hederacea; 480 h, POST, IPOHE, 2 gai/ha, 20 DAT, read-out: % activity solo application",30%
same,inhibition at 2 g/ha,"Ipomoea hederacea; 480 h, POST, IPOHE, use rate 2 gai/ha, 20 DAT, read-out: % activity",10%
same,inhibition at 4 g/ha,"Ipomoea hederacea; 480 h, POST, IPOHE, use rate 4 gai/ha, 20 DAT",35%
same,inhibition at 2 g/ha,"Ipomoea hederacea; POST, IPOHE, use rate 2 gai/ha, read-out: % activity",30%
same,inhibition at 4 g/ha,Setaria viridis; use rate 4 gai/ha,20%
same,inhibition at 8 g/ha,Setaria viridis; use rate 8 gai/ha,25%
same,inhibition at 4 g/ha,"AMAPA [1]; 240 h, use rate 4 gai/ha, 10 DAT",40%
same,inhibition at 8 g/ha,"AMAPA [1]; 240 h, 10 DAT",70%
same,inhibition at 16 g/ha,"AMAPA [1]; 240 h, use rate 16 gai/ha, 10 DAT",75%
same,inhibition at 2 g/ha,"AMAPA [1]; 480 h, use rate 2 gai/ha, 20 DAT",40%
same,inhibition at 8 g/ha,"AMAPA [1]; 480 h, 20 DAT",75%
same,inhibition at 2 g/ha,AMAPA [2],30%
